Reference: US20180303772A1, “5-HYDROXYTRYPTAMINE 1B RECEPTOR-STIMULATING AGENT FOR THE TREATMENT OF MYOCARDIAL INFARCTION” (INSTITUT PASTEUR, priority 2015, published 2018)
Structures can show the parent of a compound that is named as a salt.

How the values were obtained:
5-HT1BR = 5-HT1BR (Mus musculus, UniProt P28334)
Protocol: Counting was done based on the endogenous fluorescence. […] (d) Number of vessels (counted with endogenous GFP from Flk1^GFP/+ mouse) in fluoxetine, fluoxetine and 5HT1B inhibitor, inhibitor alone per mm^2 in the heart.
Statistical analysis was performed using GraphPad Prism software using appropriate tests (non-parametric Mann-Whitney unless specified) and a minimum of 95% confidence interval for significance; p values indicated on figures are <0.05 (*), <0.01 (**), and <0.001 (***). Figures display average values of all animals tested ±SD

C57Bl/6 mice = assay: Ischemia reperfusion (myocardial infarct), infarcted area by histology; type: in vivo; details: C57Bl/6 mice treated with fluoxetine for 6 weeks
Protocol: (e-f) Haematoxylin and eosin staining of heart of the placebo and the fluoxetine treated mice. (g) Quantification of the infarcted area with or without fluoxetine treatment.
Animals were anesthetized with ketamine (Imalgene1000 100 mg/Kg Merial) and Xylazine (Rompun2% 20 mg/Kg Bayer) prior to injury. Animals were hydrated and treated with analgesic (Buprenorphin Axience 0.3 mg/kg) twice a day for 4 days following injury.
(§1) Hearts were carefully dissected and snap frozen in liquid-nitrogen-cooled OCT for a few minutes and stored at −80° C. prior to cryosectioning (10 μm sections). Sections were kept at room temperature overnight before staining. Sections were then rehydrated in PBS for 10 minutes and fixed in 10% formalin for 3 minutes. The sections were then routinely stained with haematoxylin and eosin (HE) using an automated stain machine or manually with red sirius.
For image analysis (fibrosis quantification) ImageJ 1.46r software was using between different photos randomly taken per section and 3 sections minimum per experimental group. The pictures were converted in a binary image and the pixel values then collected.
Statistical analysis was performed using GraphPad Prism software using appropriate tests (non-parametric Mann-Whitney unless specified) and a minimum of 95% confidence interval for significance; p values indicated on figures are <0.05 (*), <0.01 (**), and <0.001 (***). […]

Flk1^GFP/+ mice = assay: Vessel number in the heart of Flk1GFP/+ mice after 6 weeks of fluoxetine; type: in vivo; details: fluoxetine 18 mg/Kg
Description: Counting was done based on the endogenous fluorescence. (b-c) Cryo-sections of the heart of Flk1^GFP/+ mice treated with placebo (b) or fluoxetine (c). Endogenous GFP levels are shown. (d) Number of vessels (counted with endogenous GFP from Flk1^GFP/+ mouse) in fluoxetine, fluoxetine and 5HT1B inhibitor, inhibitor alone per mm^2 in the heart. (e-f) Haematoxylin and eosin staining of heart of the placebo and the fluoxetine treated mice. (g) Quantification of the infarcted area with or without fluoxetine treatment.
as §1
Statistical analysis was performed using GraphPad Prism software using appropriate tests (non-parametric Mann-Whitney unless specified) and a minimum of 95% confidence interval for significance; p values indicated on figures are <0.05 (*), <0.01 (**), and <0.001 (***). Figures display average values of all animals tested ±SD […]

Chain of 5-HT1BR (P28334 whole entry, the tested form may be a part): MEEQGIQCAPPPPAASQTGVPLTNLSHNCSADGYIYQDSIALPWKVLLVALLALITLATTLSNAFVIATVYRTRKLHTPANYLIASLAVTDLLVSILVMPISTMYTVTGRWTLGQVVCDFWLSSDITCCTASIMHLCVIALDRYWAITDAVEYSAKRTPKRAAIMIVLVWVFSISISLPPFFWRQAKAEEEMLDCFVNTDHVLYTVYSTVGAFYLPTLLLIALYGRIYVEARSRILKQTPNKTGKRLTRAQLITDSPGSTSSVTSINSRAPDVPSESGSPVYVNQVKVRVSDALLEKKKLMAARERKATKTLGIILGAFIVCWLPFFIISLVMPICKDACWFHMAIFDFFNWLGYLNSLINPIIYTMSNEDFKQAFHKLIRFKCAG

| SMILES | effect of 5-HT1BR inhibition on the fluoxetine-induced increase in vessel number in the heart (5-HT1BR; GR127935 hydrochloride in osmotic pump together with fluoxetine treatment) | vessel number in the heart (5-HT1BR; fluoxetine and PBS treated mice) | infarcted area at the histological level (C57Bl/6 mice; 3 days after infarct, placebo 53126±11849, p=0.02) | infarcted area, first observation after ischemia reperfusion (C57Bl/6 mice; control 5%) | vessel number in the heart (Flk1^GFP/+ mice; 6 weeks IP, placebo 932.9±186, p=0.017) | vessel number in the heart (Flk1^GFP/+ mice; 6 weeks PO, placebo 932.9±186, p=0.03) |
| --- | --- | --- | --- | --- | --- | --- |
| COc1ccc(NC(=O)c2ccc(-c3ccc(-c4noc(C)n4)cc3C)cc2)cc1N1CCN(C)CC1 [GR127935 hydrochloride] | no increase in the vessel number in the heart was observed | – | – | – | – | – |
| CNCCC(Oc1ccc(C(F)(F)F)cc1)c1ccccc1 (stereo not drawn) [fluoxetine] | – | 1697±702 vessels per mm^2 | 36690±7884 pixels | 25 % of total area | 1634±608 vessels | 1474±375 vessels |
